What all share (assay type): biochemical
The target of one experiment is PKR WT (Homo sapiens, UniProt P30613). In words: PKR WT enzymatic AC50 assay. Conditions: wild type PKR. The method, then: (§1) • PKR or PKR mutant enzyme solution was diluted in assay buffer. • 2 μL of test compound was added into wells first, and then 180 μL reaction mix was added. • Reactions mixture with test compound was assembled except for ADP, and plates were stored for 60 minutes at room temperature. • 20 uL ADP was added to start reaction at room temperature and reaction progress was measured as changes in absorbance at 340 nm wavelength at room temperature.
PKR WT, sequence (P30613 whole entry): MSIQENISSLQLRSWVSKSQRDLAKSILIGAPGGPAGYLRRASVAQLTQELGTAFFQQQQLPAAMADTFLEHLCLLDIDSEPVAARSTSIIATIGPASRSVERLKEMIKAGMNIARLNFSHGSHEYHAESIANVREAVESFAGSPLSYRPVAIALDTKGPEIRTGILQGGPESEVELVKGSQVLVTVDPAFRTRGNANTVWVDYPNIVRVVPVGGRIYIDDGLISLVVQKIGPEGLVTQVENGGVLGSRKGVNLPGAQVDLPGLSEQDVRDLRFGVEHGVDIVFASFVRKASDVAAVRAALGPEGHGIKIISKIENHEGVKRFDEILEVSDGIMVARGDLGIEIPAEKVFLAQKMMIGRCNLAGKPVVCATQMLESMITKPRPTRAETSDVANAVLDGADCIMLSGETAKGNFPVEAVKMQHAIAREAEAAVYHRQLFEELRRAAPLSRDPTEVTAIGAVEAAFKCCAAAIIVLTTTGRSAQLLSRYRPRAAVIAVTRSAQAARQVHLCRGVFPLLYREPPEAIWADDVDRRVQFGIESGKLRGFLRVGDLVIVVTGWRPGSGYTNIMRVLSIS
(§2) Test Compound Preparation: • Test compound stock was made at 100× concentration in 100% DMSO (10 mM) • 1 to 3 dilutions were made for 11 points (i.e. 50 μl of first concentration added to 100 μl 100% DMSO to yield 3.33 mM, 50 μl of this added to 100 μl DMSO to yield 1.11 mM, and so forth) • 1 to 100 dilution into assay (2 μl in 200 μl) yielded starting concentration of 100 μM, decreasing 3 fold for 11 points. Assay Buffer: 100 mM KCl, 50 mM Tris 7.5, 5 mM MgCl2, 1 mM DTT, 0.03% BSA Reaction Mixture: PKR mutant enzyme: 80-400 ng/well; ADP: 0.22-1.65 mM; PEP: 0.1-0.5 mM; NADH: 180 uM; LDH: 0.5 units (Sigma#59023); DTT: 1 mM; BSA: 0.03%.

A further experiment addresses PKR R510Q (Homo sapiens, UniProt P30613, R510Q). Put plainly: PKR Mutant Assay, AC50 against PKR R510Q. The following applies: mutant PKR R510Q enzyme. The method, then: as §1, §2
In another experiment the target is PKR R532W (Homo sapiens, UniProt P30613, R532W). In words: PKR Mutant Assay, AC50 against PKR R532W. Conditions: mutant PKR R532W enzyme. How it is done:
as §1, §2

A value given as a limit tells only on which side of the number the result lay.

The text below walks through data of US9108921B2, “Therapeutic compounds and compositions” (AGIOS PHARMACEUTICALS, INC, priority 2014, dated 2015).

PKR R532W, sequence (P30613 whole entry R532W): as the sequence (P30613 whole entry) above, with R532W counted along it
PKR R510Q, sequence (P30613 whole entry R510Q): as the sequence (P30613 whole entry) above, with R510Q counted along it

On to `N#Cc1ccccc1C1(O)CCN(C(=O)c2ccc(NS(=O)(=O)c3cccc4cccnc34)cc2)CC1` [Compound 266, N-(4-(4-(2-cyanophenyl)-4-hydroxypiperidine-1-carbonyl)phenyl)quinoline-8-sulfonamide], for which the values for the AC50 on PKR WT, on PKR R510Q and on PKR R532W were 0.101 to 1 µM, 1.01 to 10 µM and 0.101 to 1 µM, respectively.
As to `CCC1(O)CCN(C(=O)c2ccc(NS(=O)(=O)c3cccc4cccnc34)cc2)CC1` [Compound 267], the AC50 is 0.101 to 1 µM on PKR WT, 1.01 to 10 µM on PKR R510Q and 0.101 to 1 µM at PKR R532W.
`CN1C(=O)C=C2C=C(S(=O)(=O)Nc3ccc(C(=O)N4CCC(O)(Cc5ccccc5)CC4)cc3)C=CC21` (stereo not drawn) [Compound 268]: the AC50 lay within 0.101 to 1 µM on PKR WT, 1.01 to 10 µM on PKR R510Q and 0.101 to 1 µM on PKR R532W.
For the molecule `CC(C)CC1(O)CCN(C(=O)c2ccc(NS(=O)(=O)c3csc4cccnc34)cc2)CC1` [Compound 269], the AC50 at PKR WT lay within 0.101 to 1 µM; on PKR R510Q, 1.01 to 10 µM; on PKR R532W, 0.101 to 1 µM.
With `O=C(c1ccc(NS(=O)(=O)c2cccc3cccnc23)c(OC(F)(F)F)c1)N1CCC(O)(c2ccccc2Cl)CC1` [Compound 270], the AC50 on PKR WT fell in the range of 0.101 to 1 µM; on PKR R510Q, 1.01 to 10 µM; at PKR R532W it was 0.101 to 1 µM.
As for `O=C(c1ccc(NS(=O)(=O)c2cccc3scnc23)cc1)N1CCC(O)(c2ccccc2-c2ccccc2Cl)CC1` [Compound 271], the AC50 on PKR WT was in the range of 0.101 to 1 µM; at PKR R510Q, 1.01 to 10 µM; at PKR R532W, 0.101 to 1 µM.
Consider `O=C(c1ccc(NS(=O)(=O)c2cccc3cccnc23)cc1)N1CCC(O)(Cc2cccnn2)CC1` [Compound 272], for which the AC50 fell in the range of 0.101 to 1 µM on PKR WT, 1.01 to 10 µM at PKR R510Q and 0.101 to 1 µM at PKR R532W.
For the molecule `N#Cc1cc(C(=O)N2CCC(O)(c3ccccc3Cl)CC2)ccc1NS(=O)(=O)c1cccc2cccnc12` [Compound 273], the AC50 at PKR WT is 0.101 to 1 µM; on PKR R510Q, 1.01 to 10 µM; at PKR R532W it was 0.101 to 1 µM.
Regarding `O=C(c1ccc(NS(=O)(=O)c2cccc3cccnc23)cc1)N1CCC(O)(CCO)CC1` [Compound 274], the results for the AC50 on PKR WT, at PKR R510Q and at PKR R532W were 0.101 to 1 µM, 1.01 to 10 µM and 0.101 to 1 µM, respectively.
As for `CC(O)CC1(O)CCN(C(=O)c2ccc(NS(=O)(=O)c3cccc4cccnc34)cc2)CC1` (stereo not drawn) [Compound 275], the AC50 lay in the range of 0.101 to 1 µM at PKR WT, 1.01 to 10 µM at PKR R510Q and 0.101 to 1 µM at PKR R532W.
`COc1cccc(C2(O)CCN(C(=O)c3ccc(NS(=O)(=O)c4cccc5cccnc45)cc3)CC2)c1` [Compound 276]: the concentration at half-maximal activity (AC50) at PKR WT fell in the range of 0.101 to 1 µM; on PKR R510Q it was 1.01 to 10 µM; on PKR R532W, 0.101 to 1 µM.
Consider `O=C(c1ccc(NS(=O)(=O)c2ccc(F)c3cccnc23)c(F)c1)N1CCC(O)(c2cccc(F)c2F)CC1` [Compound 277], for which the values for the AC50 at PKR WT, on PKR R510Q and at PKR R532W were 0.101 to 1 µM, 1.01 to 10 µM and 0.101 to 1 µM, respectively.
With `N#Cc1cccc(C2(O)CCN(C(=O)c3ccc(NS(=O)(=O)c4cccc5cccnc45)cc3)CC2)c1` [Compound 278], the figures for the AC50 at PKR WT, at PKR R510Q and at PKR R532W were 0.101 to 1 µM, 1.01 to 10 µM and 0.101 to 1 µM, respectively.
Take `O=C(c1ccc(NS(=O)(=O)c2csc3cccnc23)cc1)N1CCC(O)(c2ccccc2Cl)CC1` [Compound 280]: the AC50 on PKR WT is 0.101 to 1 µM; on PKR R510Q, 1.01 to 10 µM; at PKR R532W it was 0.101 to 1 µM.
Turning to `O=C(c1ccc(NS(=O)(=O)c2cccc3cnccc23)cc1)N1CCC(O)(Cc2ccccc2)CC1` [Compound 283], the results for the AC50 on PKR WT, on PKR R510Q and on PKR R532W were 0.101 to 1 µM, 1.01 to 10 µM and 0.101 to 1 µM, respectively.
In the case of `O=C(c1ccc(NS(=O)(=O)c2cccc3cccnc23)cc1)N1CCC(O)(c2cccc3c2OCCO3)CC1` [Compound 284], the AC50 at PKR WT was in the range of 0.101 to 1 µM; at PKR R510Q it was 1.01 to 10 µM; at PKR R532W it was 0.101 to 1 µM.
Regarding `COc1cccnc1C1(O)CCN(C(=O)c2ccc(NS(=O)(=O)c3cccc4cccnc34)cc2)CC1` [Compound 285], the AC50 on PKR WT was 0.101 to 1 µM; on PKR R510Q, > 10 µM; at PKR R532W, 0.101 to 1 µM.

In general, AC50 refers to the midpoint of the concentration-response curve, whichever way the signal moves.
